# Like-named read-outs stand apart in the source and are kept apart here.
# How the values were obtained:
# recombinant Hos2p.V5His6 = target: T1, recombinant Hos2p.V5His6 (Saccharomyces cerevisiae, UniProt P53096); assay: HDAC assay with purified recombinant Hos2p.V5His6 fractions; assay type: biochemical, S. cerevisiae; conditions: for IC50: read-out: IC50 (ug/ml)
# T1 construct: YGL194C/HOS2 from S. cerevisiae (residues 1-452 upstream the stop codon); made in house; host or cells: S. cerevisiae BY4742 or isogenic Δhos2 strain carrying pYES2.1.HOS2.V5His6 #7, galactose-induced
# T1 sequence (P53096 whole entry, the tested form may be a part): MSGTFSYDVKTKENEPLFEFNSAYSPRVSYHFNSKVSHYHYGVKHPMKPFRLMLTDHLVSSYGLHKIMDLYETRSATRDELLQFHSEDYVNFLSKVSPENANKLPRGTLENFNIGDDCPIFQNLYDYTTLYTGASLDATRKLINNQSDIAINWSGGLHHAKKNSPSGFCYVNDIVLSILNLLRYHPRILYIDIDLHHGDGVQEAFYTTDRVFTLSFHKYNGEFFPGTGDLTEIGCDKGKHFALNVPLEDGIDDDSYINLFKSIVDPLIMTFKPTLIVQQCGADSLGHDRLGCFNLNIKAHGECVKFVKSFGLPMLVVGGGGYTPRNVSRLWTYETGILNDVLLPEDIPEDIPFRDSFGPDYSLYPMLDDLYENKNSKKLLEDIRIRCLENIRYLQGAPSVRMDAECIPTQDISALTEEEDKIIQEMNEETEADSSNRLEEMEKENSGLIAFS
# Protocol: The induction of Hos2p.V5His6 expression by galactose was performed using either glucose or raffinose as the carbon source (pYES2.1 TOPO TA Expression Kit Manual, Invitrogen, cat. # K4150-01), Cell lysates were prepared from spheroplasts that had been generated from strains BY4742/pYES2.1.HOS2.V5His6 # 7 and Δhos2/pYES2.1.HOS2.V5His6 #7 grown in the presence or in the absence of galactose. Spheroplasts were prepared from cells that were grown in YEPD (BY4742, Δhos2), SC-URA+2% glucose or raffinose or SC-URA+1% glucose or raffinose+1% galactose (BY4742/pYES2.1.HOS2.V5His6 # 7 and Δhos2/pYES2.1.HOS2.V5His6 #7) by the lyticase method of Franzusoff et al. (1991). The collection of fractions containing or not Hos2pV5His6 was performed by IMAC using the H is GraviTrap Affinity Columns (GE Healthcare cat. # 11-033-99). Binding buffer was as recommended by the manufacturer, whereas three different elution buffers were used sequentially: 20 mM sodium phosphate+500 mM NaCl+100 mM, 250 mM or 500 mM imidazole, pH 7.4. Fractions were further desalted using PD-10 (GE Healthcare, cat. # 17-0851-01) and NAP-5 (GE Healthcare, cat. # 17-0853-02) desalting columns. Fractions that were eluted with the three different buffers containing 100, 250 or 500 mM imidazole, pH 7.4 and desalted were assayed for HDAC activity (see below). Only the corresponding fractions containing significant intrinsic HDAC activity (20 mM sodium phosphate+500 mM NaCl+250 mM imidazole) were kept for further studies.
# Fractions containing the recombinant Hos2p.V5His6 were incubated for 2 h with or without HDAC inhibitor (0-20 μg/ml). The HDAC activity that was specifically associated with the recombinant Hos2p.V5His6 expressed following galactose induction was determined assuming that
# FluoHos2p.V5His6 specific=Fluo+galactose−Fluo−galactose
# where Fluo+galactose=HDAC activity associated with all HDACs copurified along with Hos2p.V5His6 Fluo+glucose=HDAC activity associated with all HDACs copurified in the absence of Hos2p.V5His6
# ScHOS2 deletion mutant = assay: Serial dilution sensitivity of yeast deletion strain to antifungal agents; assay type: cell-based, S. cerevisiae; conditions: FIGS. 4-12
# From the text: (§1) Standard serial dilution techniques were used to determine sensitivity of yeast deletion strains to various antifungal agents.
# HosB = conditions: cited from earlier work
# C. albicans = conditions: cited from earlier work
# Candida glabrata = conditions: cited from earlier work
# A. nidulans Hda1 enzyme = conditions: cited from earlier work
# ScRPD3 deletion mutant = assay: Serial dilution sensitivity of yeast deletion strain to antifungal agents; assay type: cell-based, S. cerevisiae; conditions: FIG. 3
# From the text: as §1
# [1] = test system: WT/ScHOS2 and Δhos2/ScHOS2; assay: MIC80 testing (CLSI M27-A2), complementation of Δhos2 by recombinant ScHos2p; assay type: cell-based, S. cerevisiae; conditions: 72 hours, 30° C., FIG. 14
# Protocol: Minimum inhibitory concentration (MIC) testing was performed according to CLSI M27-A2 method for yeast testing using CSM-URA medium (Complete Synthetic Medium minus Uracile) containing either 2% raffinose or 1% raffinose+1% galactose as the carbon source. Itraconazole concentrations ranged from […]. Log-phase cells grown in CSM-URA+2% raffinose or CSM-URA+1% raffinose+1% galactose were inoculated at 5×10^3 cells/ml. The MIC80 of itraconazole was determined after 72 hours growth at 30° C.
compound,measurement,setting,value
O=C(Cc1ccc(CCCCc2ccccc2)cc1)NO [Compound 4],IC50,recombinant Hos2p.V5His6; Hos2 from S. cerevisiae BY4742/HOS2.V5His6 grown in glucose (GAL1 repressed) or galactose (induced),~14.1 µM
same,IC50,recombinant Hos2p.V5His6; Hos2 from S. cerevisiae BY4742/HOS2.V5His6 grown in raffinose (GAL1 repressed) or galactose (induced),~10.6 µM
same,inhibition at 5 µg/mL,"recombinant Hos2p.V5His6; read-out: % inhibition at 5 μg/ml, Hos2 from S. cerevisiae BY4742/HOS2.V5His6 grown in glucose (GAL1 repressed) or galactose (induced), 5 μg/ml, 2 h",60.7%
same,inhibition at 5 µg/mL,"recombinant Hos2p.V5His6; read-out: % inhibition at 5 μg/ml, Hos2 from S. cerevisiae BY4742/HOS2.V5His6 grown in raffinose (GAL1 repressed) or galactose (induced), 5 μg/ml, 2 h",61.2%
same,inhibition at 5 µg/mL,"recombinant Hos2p.V5His6; read-out: % inhibition at 5 μg/ml, Hos2 from S. cerevisiae Δhos2/HOS2.V5His6 grown in glucose (GAL1 repressed) or galactose (induced), 5 μg/ml, 2 h",55.2%
same,IC50,recombinant Hos2p.V5His6; Hos2 from S. cerevisiae Δhos2/HOS2.V5His6 grown in glucose (GAL1 repressed) or galactose (induced),~15.9 µM
same,inhibition at 5 µg/mL,"recombinant Hos2p.V5His6; read-out: inhibition of purified Hos2 protein, 5 ug/ml, summary of Table 1",> 60%
C[C@@H]([C@H](N)C(=O)N[C@H](C(=O)O)[C@H]1O[C@@H](n2ccc(=O)[nH]c2=O)[C@H](O)[C@@H]1O)[C@H](O)c1ccc(O)cn1 [nikkomycin],hypersensitivity of ScHOS2 deletion mutant to antifungal agent,ScHOS2 deletion mutant,not hypersensitive
"CC(/C=C/C(=O)NO)=C\[C@@H](C)C(=O)c1ccc(N(C)C)cc1 [TSA, trichostatin A]",sensitivity of the enzyme to the HDAC inhibitor,HosB,highly resistant
same,ability to enhance the sensitivity to azole antifungal agents,C. albicans,able to enhance the sensitivity
same,ability to enhance the sensitivity to azole antifungal agents,Candida glabrata,not found to enhance the sensitivity
same,sensitivity of the enzyme to the HDAC inhibitor,A. nidulans Hda1 enzyme,highly sensitive
Nc1nc(=O)[nH]cc1F [5-fluorocytosine],hypersensitivity of ScHOS2 deletion mutant to antifungal agent,ScHOS2 deletion mutant,not hypersensitive
CC(=O)N1CCN(c2ccc(OCC3COC(Cn4ccnc4)(c4ccc(Cl)cc4Cl)O3)cc2)CC1 (stereo not drawn) [ketoconazole],hypersensitivity of ScRPD3 deletion mutant to antifungal agent,ScRPD3 deletion mutant,not hypersensitive
same,hypersensitivity of ScHOS2 deletion mutant to antifungal agent,ScHOS2 deletion mutant,hypersensitive
CC(Cc1ccc(C(C)(C)C)cc1)CN1C[C@@H](C)O[C@@H](C)C1 (stereo partly drawn) [fenpropimorph],hypersensitivity of ScHOS2 deletion mutant to antifungal agent,ScHOS2 deletion mutant,hypersensitive
C[C@@H](c1ncncc1F)[C@](O)(Cn1cncn1)c1ccc(F)cc1F [voriconazole],hypersensitivity of ScHOS2 deletion mutant to antifungal agent,ScHOS2 deletion mutant,hypersensitive
C[C@@H]1[C@H](O)[C@@H](C)/C=C/C=C/C=C/C=C/C=C/C=C/C=C/[C@H](O[C@@H]2O[C@H](C)[C@@H](O)[C@H](N)[C@@H]2O)C[C@@H]2O[C@](O)(C[C@@H](O)C[C@@H](O)[C@H](O)CC[C@@H](O)C[C@@H](O)CC(=O)O[C@H]1C)C[C@H](O)[C@H]2C(=O)O [Amphotericin B],hypersensitivity of ScHOS2 deletion mutant to antifungal agent,ScHOS2 deletion mutant,not hypersensitive
OC(Cn1cncn1)(Cn1cncn1)c1ccc(F)cc1F [fluconazole],hypersensitivity of ScRPD3 deletion mutant to antifungal agent,ScRPD3 deletion mutant,not hypersensitive
same,hypersensitivity of ScHOS2 deletion mutant to antifungal agent,ScHOS2 deletion mutant,hypersensitive
CN(C/C=C/C#CC(C)(C)C)Cc1cccc2ccccc12 [terbinazine],hypersensitivity of ScHOS2 deletion mutant to antifungal agent,ScHOS2 deletion mutant,not hypersensitive
C[C@@H]1NC(=O)[C@H]2CCCN2C(=O)[C@H](CCCCCC(=O)[C@@H]2CO2)NC(=O)[C@@H](C)NC1=O [HC toxin],sensitivity of the enzyme to the HDAC inhibitor,HosB,highly resistant
CCC(C)n1ncn(-c2ccc(N3CCN(c4ccc(OCC5COC(Cn6cncn6)(c6ccc(Cl)cc6Cl)O5)cc4)CC3)cc2)c1=O (stereo not drawn) [itraconazole],difference in sensitivity (MIC80) between WT/ScHOS2 and Δhos2/ScHOS2,[1]; expression of Hos2 induced by galactose,2 fold
same,difference in sensitivity (MIC80) between WT/ScHOS2 and Δhos2/ScHOS2,[1]; grown in the presence of raffinose,4 fold
